Patent US11311568B2, “Therapeutic pharmaceutical composition for cancer including miRNA” (Purmx Therapeutics, Inc., priority 2017, dated 2022)

Assays:
[1] = test system: malignant pleural mesothelioma cells MSTO-211H; assay: Antitumor effect in vivo, subcutaneous transplantation of MSTO-211H cells; set-up: species or system SCID mouse; conditions: SCID mice, MSTO-211H subcutaneous, miRNA with A6K at tumor site, 13 administrations, 34 days after transplantation, FIG. 13
Experimental: In order to verify the antitumor effect of the miRNA of the present invention in vivo, experiments was performed with laboratory animals transplanted with malignant pleural mesothelioma cells.
Malignant pleural mesothelioma cells MSTO-211H cells were used.
1: The cells on the dish were washed twice with PBS (-).
2: The cells were detached with trypsin.
3: This was suspended in a medium, and cells were counted.
4: Centrifugation at a condition of 1000 rpm for 3 min was performed to pellet down.
5: The cells were resuspended in PBS (-) in order to obtain 2.0×10^7 cells/mL.
Six weeks-old C-B-17/Icr-scid/scid Jcl (SCID mouse) were used as mice. SCID mice were subcutaneously administered 100 μL of the prepared cell suspension, and the cells were allowed to settle.
Negative control which is the control sequence and miR-3140-3p which is the miRNA of the present invention were employed. A6K (from 3D Matrix) was employed as the nucleic acid delivery reagent. The administration of miRNA to mice was carried out with the following protocol.
1: 100 μM of the nucleic acid (miRNA) was diluted with 10% saline and sterilized water in order to obtain 71.4 μM.
2: 1% A6K solution was sonicated for 5 minutes before use.
3: The diluted nucleic acid and the 1% A6K solution were mixed at a proportion of 1:1 to give the administration nucleic acid. […]

[2] = test system: breast cancer stem cell strain (MDA-MB231-luc-D3H2LN cells); assay: Annexin V apoptosis marker expression by FACS; assay type: cell-based; conditions: six days after transfection, FIG. 10 bottom
Experimental: Moreover, by the protocol below, the expression of apoptosis marker Annexin V in breast cancer cells transfected with miR-3140-3p was analyzed.
1: Transfection of miR-3140-3p was performed with a protocol similar to that described above.
2: Six days after transfection, cells were recovered together with the supernatant.
3: Samples for FACS were prepared according to the protocol of the Annexin V assay kit.
4: Cells stained by Annexin V-FITC were stained with an antibody against cancer stem cell marker CD44 (eBioScience).
5: The prepared samples were analyzed with Cell Sorter (SONY).

[3] = test system: breast cancer stem cell strain (MDA-MB231-luc-D3H2LN cells); assay: Cell growth inhibition, cell count after transfection; assay type: cell-based; conditions: final concentration 12.5 nM, four days after transfection, FIG. 10 top
Experimental: miR-3140-3p was transfected in a highly metastatic cancer cell strain of breast cancer (MDA-MB231-luc-D3H2LN cells), and cell proliferation was observed. […] Transfection was carried out with the following protocol.
1: To a 35 mm dish were added 500 μL of serum free medium (SFM) and 5 μL of RNAiMAX (Invitrogen).
2: To the solution from 1 was added 12.5 μL each of miR-Control or miR-3140-3p, miR-22-3p, and miR-34a-5p (stock conc. 2 μM) (final concentration 12.5 nM).
(§1) 3: This was incubated at room temperature for 20 minutes.
4: 1.5 mL of a cell suspension diluted to 6.7×10^4 cells/mL was added to the 35 mm dish.
(§2) 5: This was incubated at 37° C. under 5% CO2 condition.
6: The cells were counted four days after transfection.

[4] = test system: malignant pleural mesothelioma cell EHMES-10; assay: Calculation of IC50 value, cell survival with Cell Counting Kit 8; assay type: cell-based; conditions: five days after transfection
Experimental: The IC50 value of miR-3140-3p was calculated with malignant pleural mesothelioma cell EHMES-10.
The protocol therefor is shown below.
1: To 25 μL of serum free medium (SFM) was added 0.25 μL of RNAiMAX (Invitrogen).
2: miR-Control and miR-3140-3p were serially diluted so that the final concentrations will be 40 nM, 20 nM, 10 nM, 5 nM, 1 nM, 500 pM, 100 pM, 50 pM, 10 pM, 5 pM, and 1 pM, and mixed with SFM/RNAiMAX complex.
as §1
4: 75 μL of each of cells at 6.7×10^4 cells/mL were added to each well.
as §2
6: Five days after transfection, the survival rates of cells were investigated with Cell Counting Kit 8 (DOJINDO). The protocol therefor is shown below.
(i) Cell Counting Kit was diluted 10-folds with a medium.
(ii) 200 μL of each of the diluted Cell Counting Kit was added to each well.
(iii) This was incubated at 37° C. under 5% CO2 condition for 1 hour.
(iv) The values at 450 nm/600 nm were measured with a plate reader.
Note that the same control RNA as that used in Experiment 7 was employed as the control.

Substance: miR-3140-3p: Mature-miRNA, AGCUUUUGGGAAUUCAGGUAGU (SEQ ID NO. 2) (listed as RNA, chemistry not given here; listed as Homo sapiens)
- tumor weight at endpoint compared to the control group [1]: significantly lower
- apoptosis marker Annexin V positive [2]: 96.97%
- cell growth inhibition effect (cell count) [3]: extremely high cell growth inhibition effect
- growth inhibition effect (survival rates of cells, Cell Counting Kit 8) ([4]; EHMES-10, 1 pM to 40 nM, FIG. 29): growth inhibition effect against malignant pleural mesothelioma cell strain EHMES-10 even at a very low concentration
- IC50 ([4]; EHMES-10, final concentration, Cell Counting Kit 8): 0.57 nM
